Our source for the ORR, DCR and PR values is US20240122875A1, “USE OF MITOXANTRONE HYDROCHLORIDE LIPOSOME” (CSPC ZHONGQI PHARMACEUTICAL TECHNOLOGY (SHIJIAZHUANG) CO., …, priority 2021, published 2024).

SMILES strings stand for the structures. Counter-ions that a name gives are not always drawn.

For this test, the system named is recurrent/metastatic breast cancer. The experiment in a line: Inventor's previous clinical research, monotherapy of recurrent/metastatic breast cancer, liposome versus ordinary injection. It counts as in vivo, human. As to conditions: control group, 14 mg/m^2 every 4 weeks. The method, then: The inventor's previous clinical research included mitoxantrone hydrochloride monotherapy in the treatment of recurrent/metastatic breast cancer. There were 30 cases in the experimental group and the control group respectively. […] The control group was given mitoxantrone hydrochloride injection in 14 mg/m^2, every 4 weeks as a cycle.

The molecule `O=C1c2c(O)ccc(O)c2C(=O)c2c(NCCNCCO)ccc(NCCNCCO)c21` [mitoxantrone hydrochloride injection, mitoxantrone hydrochloride] displayed an ORR (2/30) of 6.7%. The same molecule registered a DCR (9/30) of 30%. This molecule gave a PR (30 cases) of 2 cases.
